The record followed here is US10647680B2, “Urea compound, preparation method therefor and medical use thereof” (Ancureall Pharmaceutical (Shanghai) Co., Ltd., priority 2016, dated 2020).

Assay [1] concerns MOLM-13 (FLT3 ITD+/− mutant type). The experiment in a line: In vitro growth inhibition (GI50), MOLM-13. The format is cell-based, human. Particulars: for GI50: Homo sapiens, MOLM-13, Cell lines of leukemia, read-out: GI 50 MOLM-13 FLT3 (ITD+/−); for inhibition activity against the growth of MOLM-13 cells compared with AC220: compared with the control compound AC220.
The next assay deals with RS4; 11 (FLT3 wild type). Kind of assay: In vitro growth inhibition (GI50), RS4; 11. Particulars: for GI50 value, RS4; 11 (in words) / inhibitory effect on RS4; 11: FLT3 wild type high-expressing cells RS4; for inhibitory effect on RS4; 11: 11, under high concentrations; for GI50: Homo sapiens. The format is cell-based, human.
A further assay has as its system MKN-45 (c-MET amp). Kind of assay: In vitro growth inhibition (GI50), MKN-45. It counts as cell-based. The following applies: Homo sapiens; MKN-45, cMET Amp+. The source says: Tumor cell line is an effective cell model for studying the inhibition of tumor cell growth or proliferation in vitro. In the present invention, a representative tumor cell line was selected to determine the cell growth inhibition activity of the present compound. All cell lines used were from ATCC, DSMZ, and the Cell Bank of the Chinese Academy of Sciences. Cell culture conditions and methods were in accordance with the requirements of each cell line. Cells were subcultured in vitro for no more than 3 passages each time, and as required, single-clone purification and identification of cell lines could be carried out.
The cell culture media used were RPMI1640 (Gibco), MEM (Gibco), McCOY'S5A (Gibco), and IMDM (Gibco). The complete medium was prepared by supplement with 5˜20% fetal calf serum (Gibco), 1% double-antibiotics (10000 units/mL penicillin and 10000 units/mL), 2 mM glutamine or 1 mM sodium pyruvate, respectively.
The human gastric cancer cell line MKN-45 (c-MET amp, ATCC) and the non-small cell lung cancer cell line NCI-H1993 (c-MET amp, ATCC) were cultured in complete medium comprising 1×RPMI1640 and 10% FBS, respectively.
Adherent cells were digested with 0.25% pancreatin-EDTA (Gibco). The suspension cells were collected by centrifugation. The supernatant was discarded and the cell pellet was resuspended and counted. Different cell concentrations (5˜10×10^4 cells/mL) were prepared according to the growth cycle of each cell line and then seeded on a 96-well plate (Corning), 100 μL/well. The cells were incubated overnight at 37° C., 5% CO2. The compounds were added to the cells on the second day with 2 wells in parallel. The final concentration of organic solvent shall not exceed 1%. The cells were continually incubated for 3 to 5 days, and then subjected to MTT assay.
The compound of the present invention and the control compound were dissolved in DMSO (Sigma) respectively, with the purity of more than 98%. The compound was stored in a concentration of 10 mM at −20° C. and diluted to 2- or 10-fold series prior to use.
Dojindo CCK8 reagent kit was used as MTT assay. THERMO […] FC meter was used as microplate reader.
For adherent cells, culture medium was removed and immediately replaced with the fresh prepared medium which contains 10% CCK8 reagent (100 μL/well). For the suspension cells, CCK8 was directly added to 10% of the final concentration. The cells were continually incubated for 1˜4 h. When a dark yellow color could be observed in the solvent control wells, the absorbance value at OD450 nm was measured and the cell growth rate was calculated according to the following formula: Cell Growth Rate (%)=100*(T−T0)/(C−T0) T=optical density of drug treatment cell well—optical density of blank control well; T0=optical density of cell well before drug treatment—optical density of blank control well; C=optical density of cell well of solvent control group—optical density of blank control well. The concentration value of 50% inhibition of cell growth (GI50) was calculated according to the drug concentration and cell growth rate curve. The experiment was independently repeated 1˜3 times, and subject to biological statistical analysis. 4. Experimental Results
Tumor cell growth inhibition test was performed by selecting representative compounds (compounds 4, 11, 12, 16, 27, 68, 71, 77, 79, 89 and 116 of the present invention). The initial concentration of the compound was 5,000 nM, then it was serially diluted by 2-fold or 10-fold to 0.01 nM. The GI50 value of each test compound was calculated according to the GI50 assay and calculation method. The experiments were repeated 1 to 3 times, and data were subjected to biological statistical analysis.

[2] abbreviates: RS4-11, Cell lines of leukemia, read-out: GI 50 RS4: 11 FLT3 (WT).
[3] abbreviates: RS4, 11, FLT3 WT, read-out: GI50.
The mark [4] stands for this setting: FLT3 wild-type high expressing cell RS4, 11, Table 3, read-out: GI50 value, RS4, 11.

Read-outs that look alike come from different tables or passages of the source.

Regarding `CC(C)(C)c1cc(NC(=O)Nc2ccc(-n3cnc4cc(OCCN5CCOCC5)ccc43)cc2)[nH]n1` [Compound 89, 1-(5-tert-butyl-2H-pyrazol-3-yl)-3-{4-[5-(2-morpholin-4-yl-ethoxyl)-benzimidazol-1-yl]-phenyl}-urea], the GI50 in assay [1] was 0.1 to 1 nM; with RS4; 11 (FLT3 wild type) (setting [2]) it was above 1000 nM; in the assay on RS4; 11 (FLT3 wild type) (setting [3]), 2090 nM; in the assay on MKN-45 (c-MET amp) it was above 2500 nM. Further, the “inhibition activity against the growth of MOLM-13 cells compared with AC220” value (shortened to “inhibition activity … compared with AC220”) in assay [1] is recorded as “stronger inhibition activity”. In addition, the “GI50 value, RS4; 11 (in words)” value with RS4; 11 (FLT3 wild type) (11) is “micromolar range”. Also, the “inhibitory effect on RS4; 11” value in the assay on RS4; 11 (FLT3 wild type) is on record as “no obvious inhibitory effect”.
Take `CC(C)(C)c1cc(NC(=O)Nc2ccc(-n3cnc4cc(O)ccc43)cc2)no1` [Compound 4, 1-(5-tert-butyl-isoxazol-3-yl)-3-[4-(5-hydroxy-benzimidazol-1-yl)-phenyl]-urea]: the GI50 is 0.1 to 1 nM in assay [1]; 100 to 1000 nM in the assay on RS4; 11 (FLT3 wild type) (setting [2]); 50 to 800 nM with RS4; 11 (FLT3 wild type) (setting [4]); 234 nM in the assay on RS4; 11 (FLT3 wild type) (setting [3]); above 2500 nM in the assay with MKN-45 (c-MET amp).
In the case of `CC(C)(C)c1cc(NC(=O)Nc2ccc(-n3cnc4cc(OCCO)ccc43)cc2)no1` [Compound 11, 1-(5-tert-butyl-isoxazol-3-yl)-3-{4-[5-(2-hydroxy-ethoxyl)-benzimidazol-1-yl]-phenyl]-urea], the GI50 is 0.01 to 0.1 nM in assay [1]; 10 to 100 nM in the assay with RS4; 11 (FLT3 wild type) (setting [2]); 50 to 800 nM with RS4; 11 (FLT3 wild type) (setting [4]); 57.4 nM in the assay on RS4; 11 (FLT3 wild type) (setting [3]); above 2500 nM with MKN-45 (c-MET amp). The “inhibition activity … compared with AC220” value in assay [1] is given as “stronger inhibition activity”.
On to `COCCOc1ccc2c(c1)ncn2-c1ccc(NC(=O)Nc2cc(C(C)(C)C)n[nH]2)cc1` [Compound 77, 1-(5-tert-butyl-2H-pyrazol-3-yl)-3-{4-[5-(2-methoxyl-ethoxyl)-benzimidazol-1-yl]-phenyl}-urea], for which the GI50 in assay [1] was 0.01 to 0.1 nM; in the assay on RS4; 11 (FLT3 wild type) (setting [2]), above 1000 nM; in the assay on RS4; 11 (FLT3 wild type) (setting [3]), 2490 nM; in the assay on MKN-45 (c-MET amp) it was above 2500 nM. Further, the “inhibition activity … compared with AC220” value in assay [1] was “stronger inhibition activity”. Further, in the assay with RS4; 11 (FLT3 wild type) (11), the “GI50 value, RS4; 11 (in words)” value is “micromolar range”. Besides, in the assay with RS4; 11 (FLT3 wild type), the “inhibitory effect on RS4; 11” value is “no obvious inhibitory effect”.
For the compound `CC(C)(C)c1cc(NC(=O)Nc2ccc(-n3cnc4ccccc43)cc2)[nH]n1` [Compound 68, 1-(4-benzimidazol-1-yl-phenyl)-3-(5-tert-butyl-2H-pyrazol-3-yl)-urea], the GI50 in assay [1] was 0.1 to 1 nM; in the assay with RS4; 11 (FLT3 wild type) (setting [2]), above 1000 nM; in the assay on RS4; 11 (FLT3 wild type) (setting [3]) it was 3500 nM; in the assay with MKN-45 (c-MET amp), above 2500 nM. In the assay on RS4; 11 (FLT3 wild type) (11), the “GI50 value, RS4; 11 (in words)” value is on record as “micromolar range”. Besides, the “inhibitory effect on RS4; 11” value with RS4; 11 (FLT3 wild type) is “no obvious inhibitory effect”.
Regarding `CC(C)(C)c1cc(N)n(C(=O)Nc2ccc(-n3cnc4ccccc43)cc2)n1` [Compound 116, 5-amino-3-tert-butyl-pyrazol-1-carboxylic acid (4-benzimidazol-1-yl-phenyl)-amide], the GI50 in assay [1] was 10 to 100 nM; with RS4; 11 (FLT3 wild type) (setting [2]), above 1000 nM; with RS4; 11 (FLT3 wild type) (setting [3]), 2100 nM; with MKN-45 (c-MET amp), above 2500 nM. Besides, the “GI50 value, RS4; 11 (in words)” value in the assay with RS4; 11 (FLT3 wild type) (11) is recorded as “micromolar range”. For the same compound, in the assay with RS4; 11 (FLT3 wild type), the “inhibitory effect on RS4; 11” value is “no obvious inhibitory effect”.
As for `CC(C)(C)c1cc(NC(=O)Nc2ccc(-n3cnc4cc(OCCN5CCOCC5)ccc43)cc2)no1` [Compound 16, 1-(5-tert-butyl-isoxazol-3-yl)-3-{4-[5-(2-morpholin-4-yl-ethoxyl)-benzimidazol-1-yl]-phenyl}-urea], the GI50 was 0.1 to 1 nM in assay [1], above 1000 nM in the assay on RS4; 11 (FLT3 wild type) (setting [2]), 1750 nM in the assay with RS4; 11 (FLT3 wild type) (setting [3]) and above 2500 nM in the assay with MKN-45 (c-MET amp). Further, the “GI50 value, RS4; 11 (in words)” value with RS4; 11 (FLT3 wild type) (11) is given as “micromolar range”. Further, the “inhibitory effect on RS4; 11” value with RS4; 11 (FLT3 wild type) is recorded as “no obvious inhibitory effect”.
Regarding `COc1ccc2c(c1)ncn2-c1ccc(NC(=O)Nc2cc(C(C)(C)C)n[nH]2)cc1` [Compound 71, 1-(5-tert-butyl-2H-pyrazol-3-yl)-3-[4-(5-methoxyl-benzimidazol-1-yl)-phenyl]-urea], the GI50 in assay [1] was 0.01 to 0.1 nM; in the assay with RS4; 11 (FLT3 wild type) (setting [2]), above 1000 nM; with RS4; 11 (FLT3 wild type) (setting [3]), 2750 nM; in the assay on MKN-45 (c-MET amp), above 2500 nM. Also, in assay [1], the “inhibition activity … compared with AC220” value is recorded as “stronger inhibition activity”. Also, the “GI50 value, RS4; 11 (in words)” value with RS4; 11 (FLT3 wild type) (11) is reported as “micromolar range”. Besides, in the assay with RS4; 11 (FLT3 wild type), the “inhibitory effect on RS4; 11” value was “no obvious inhibitory effect”.
With `CC(C)(C)c1cc(NC(=O)Nc2ccc(-n3cnc4cc(OCCO)ccc43)cc2)[nH]n1` [Compound 79, 1-(5-tert-butyl-2H-pyrazol-3-yl)-3-{4-[5-(2-hydroxy-ethoxyl)-benzimidazol-1-yl]-phenyl]urea], the GI50 in assay [1] was 0.1 to 1 nM; in the assay on RS4; 11 (FLT3 wild type) (setting [2]) it was above 1000 nM; with RS4; 11 (FLT3 wild type) (setting [4]) it was 50 to 800 nM; with RS4; 11 (FLT3 wild type) (setting [3]), 768 nM; in the assay with MKN-45 (c-MET amp) it was above 2500 nM. The “inhibition activity … compared with AC220” value in assay [1] is on record as “stronger inhibition activity”.
Turning to `CC(C)(C)c1cc(NC(=O)Nc2ccc(-n3cnc4ccc(OCCN5CCOCC5)cc43)cc2)no1` [Compound 27, 1-(5-tert-butyl-isoxazol-3-yl)-3-{4-[6-(2morpholin-4-yl-ethoxyl)-benzimidazol-1-yl]-phenyl}-urea], the GI50 was 0.1 to 1 nM in assay [1], above 1000 nM in the assay with RS4; 11 (FLT3 wild type) (setting [2]), 2380 nM with RS4; 11 (FLT3 wild type) (setting [3]) and above 2500 nM with MKN-45 (c-MET amp). The “GI50 value, RS4; 11 (in words)” value in the assay with RS4; 11 (FLT3 wild type) (11) is given as “micromolar range”. In addition, in the assay with RS4; 11 (FLT3 wild type), the “inhibitory effect on RS4; 11” value is “no obvious inhibitory effect”.
